Data on 19 compounds can be found in patent publication US11780826B2 (Amgen Inc., priority 2017, dated 2023).

This assay concerns Bovine cardiac myofibrils. Description: In vitro model of dose-dependent myofibril ATPase modulation (AC1.4, pyruvate kinase/lactate dehydrogenase-coupled ATPase assay at pCa25). It is filed as biochemical. To be noted: concentration at which ATPase activity was 1.4-fold higher than the bottom of the dose curve, mean of a minimum of two independent tests. The gist of the method: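 Detergent-skinned bovine cardiac myofibrils (typically 0.25-1.0 mg/ml) in Ca-buffered (EGTA/CaCl2) PK/LDH-coupled ATPase assay: 12 mM K-PIPES pH 6.80, 2 mM MgCl2, 1 mM ATP, 1 mM DTT, 0.5 mM NADH, 1.5 mM PEP. Hydrolysis followed at 340 nm; dose response fit to 4-parameter equation; AC1.4 is mean of ≥2 tests.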
In turn, `CS(=O)(=O)c1ccc(C(=O)N2CCC[C@@H]2C(=O)NC(c2ccc(C(F)(F)F)cc2F)C2CC2)cn1` (stereo partly drawn) [Example 569, (2R)-N-(cyclopropyl(2-fluoro-4-(trifluoromethyl)phenyl)methyl)-1-(6-(methylsulfonyl)nicotinoyl)pyrrolidine-2-carboxamide] yielded an AC1.4 of 3.182 µM.

`CC(=O)NC1CN(S(=O)(=O)N2CCC[C@H](C(=O)N3CCC[C@@H]3C(=O)NCc3ccc(C(F)(F)F)cc3)C2)C1` [Example 782, 1-(((3S)-1-((3-(acetylamino)-1-azetidinyl)sulfonyl)-3-piperidinyl)carbonyl)-N-(4-(trifluoromethyl)benzyl)-D-prolinamide] yielded an AC1.4 of 8.6395 µM.

For the compound `O=C(N[C@@H](c1ccc(C(F)(F)F)cc1F)C1CC1)[C@H]1C[C@H]2C[C@H]2N1C(=O)c1ccnc(C(F)(F)F)c1` [Example 495, (1R,3R,5R)-N-((R)-cyclopropyl(2-fluoro-4-(trifluoromethyl)phenyl)methyl)-2-((2-(trifluoromethyl)-4-pyridinyl)carbonyl)-2-azabicyclo[3.1.0]hexane-3-carboxamide], the AC1.4 is 2.278 µM.

For `O=C(NCc1ccc(C(F)(F)F)cc1)[C@H]1CCCN1C(=O)[C@H]1CCCN(S(=O)(=O)N2CCC2c2ccccc2F)C1` (stereo partly drawn) [Example 302, (2R)-1-((3S)-1-((2-(2-fluorophenyl)azetidin-1-yl)sulfonyl)piperidine-3-carbonyl)-N-(4-(trifluoromethyl)benzyl)pyrrolidine-2-carboxamide], the AC1.4 was 0.7944 µM.

Consider `CC(C)C[C@@H](NC(=O)[C@H]1CCCN1C(=O)[C@H]1CCCN(S(=O)(=O)N2CC(C#N)C2)C1)c1ccc(C(F)(F)F)cc1` [Example 68, 1-(((3S)-1-((3-cyano-1-azetidinyl)sulfonyl)-3-piperidinyl)carbonyl)-N-((1R)-3-methyl-1-(4-(trifluoromethyl)phenyl)butyl)-D-prolinamide], for which the AC1.4 was 0.0784 µM.

Compound `N#CC1CN(S(=O)(=O)c2cccc(C(=O)N3CCC[C@@H]3C(=O)N[C@H](CO)c3ccc(C(F)(F)F)cc3)c2)C1` [Example 31, 1-(3-((3-cyano-1-azetidinyl)sulfonyl)benzoyl)-N-((1S)-2-hydroxy-1-(4-(trifluoromethyl)phenyl)ethyl)-D-prolinamide] came in with an AC1.4 of 0.03275 µM.

As for `CS(=O)(=O)c1cncc(C(=O)N2CCC[C@@H]2C(=O)NC(c2ccc(C(F)(F)F)cc2F)C2CC2)c1` (stereo partly drawn) [Example 809, (2R)-N-(cyclopropyl(2-fluoro-4-(trifluoromethyl)phenyl)methyl)-1-(5-(methylsulfonyl)nicotinoyl)pyrrolidine-2-carboxamide], the AC1.4 was found to be 4.951 µM.

On to `CS(=O)(=O)c1cccc(C(=O)N2C[C@H](F)C[C@@H]2C(=O)N[C@@H](c2ccc(C(F)(F)F)cc2F)C2CC2)c1` [Example 619, (4R)-N-((R)-cyclopropyl(2-fluoro-4-(trifluoromethyl)phenyl)methyl)-4-fluoro-1-(3-(methylsulfonyl)benzoyl)-D-prolinamide], for which the AC1.4 worked out at 3.929 µM.

Compound `Cc1cc(C(=O)N2[C@@H](C(=O)N[C@@H](c3cc(F)c(C(F)(F)F)cc3F)C3CC3)C[C@H]3C[C@H]32)c(C(C)O)cn1` (stereo partly drawn) [Example 822, (1R,3R,5R)-N-((R)-cyclopropyl(2,5-difluoro-4-(trifluoromethyl)phenyl)methyl)-2-(5-(l-hydroxyethyl)-2-methylisonicotinoyl)-2-azabicyclo[3.1.0]hexane-3-carboxamide] returned an AC1.4 of 5.894 µM.

`N#CC1CN(S(=O)(=O)N2CCC[C@H](C(=O)N3CCC[C@@H]3C(=O)NCc3c(F)cccc3Cl)C2)C1` [Example 719, N-(2-chloro-6-fluorobenzyl)-1-(((3S)-1-((3-cyano-1-azetidinyl)sulfonyl)-3-piperidinyl)carbonyl)-D-prolinamide]: the AC1.4 was 6.2628 µM.

Compound `CC(C)(C)c1cc(C(=O)N2[C@@H](C(=O)N[C@@H](c3ccc(C(F)(F)F)cc3F)C3COC3)C[C@H]3C[C@H]32)ccn1` [Example 647, (1R,3R,5R)-N-((R)-(2-fluoro-4-(trifluoromethyl)phenyl)(3-oxetanyl)methyl)-2-((2-(2-methyl-2-propanyl)-4-pyridinyl)carbonyl)-2-azabicyclo[3.1.0]hexane-3-carboxamide] had an AC1.4 of 4.4125 µM.

For the compound `N#CC1CN(S(=O)(=O)c2cccc(C(=O)N3CC4(CC4)C[C@@H]3C(=O)NCc3ccc(C(F)(F)F)cc3)c2)C1` [Example 15, (6R)-5-((3-((3-cyano-1-azetidinyl)sulfonyl)phenyl)carbonyl)-N-(4-(trifluoromethyl)benzyl)-5-azaspiro[2.4]heptane-6-carboxamide], the AC1.4 was determined as 0.02315 µM.

The compound `CS(=O)(=O)c1ccnc(C(=O)N2CCC[C@@H]2C(=O)N[C@@H](c2cc(F)c(Cl)cc2F)C2CC2)c1` [Example 222, N-((R)-(4-chloro-2,5-difluorophenyl)(cyclopropyl)methyl)-1-((4-(methylsulfonyl)-2-pyridinyl)carbonyl)-D-prolinamide] had an AC1.4 of 0.4825 µM.

Turning to `O=C(N[C@@H](c1cc(F)c(C(F)(F)F)cc1F)C1CC1)[C@H]1C[C@H]2C[C@H]2N1C(=O)c1cncc(C(F)(F)F)c1` [Example 361, (1R,3R,5R)-N-((R)-cyclopropyl(2,5-difluoro-4-(trifluoromethyl)phenyl)methyl)-2-((5-(trifluoromethyl)-3-pyridinyl)carbonyl)-2-azabicyclo[3.1.0]hexane-3-carboxamide], the AC1.4 was 1.1125 µM.

For the compound `Cc1ccc(CNC(=O)[C@H]2CCCN2C(=O)[C@@H]2CN(S(=O)(=O)N3CC(C#N)C3)CCN2)cc1F` [Example 334, 1-(((2S)-4-((3-cyano-1-azetidinyl)sulfonyl)-2-piperazinyl)carbonyl)-N-(3-fluoro-4-methylbenzyl)-D-prolinamide], the AC1.4 stood at 0.9294 µM.

The compound `N#CC1CN(S(=O)(=O)N2CCC[C@H](C(=O)N3CCC[C@@H]3C(=O)N[C@@H](c3cc(F)c(Cl)cc3F)C3CNC3)C2)C1` (single isomer, unassigned) [Example 558] displayed an AC1.4 of 2.928 µM.

`O=C(NCc1ccc(C(F)(F)F)cc1)[C@H]1CCCN1C(=O)[C@H]1CCCN(S(=O)(=O)N2CCC2c2cccc(F)c2)C1` (stereo partly drawn) [Example 166, 1-(((3S)-1-((-2-(3-fluorophenyl)-1-azetidinyl)sulfonyl)-3-piperidinyl)carbonyl)-N-(4-(trifluoromethyl)benzyl)-D-prolinamide] had an AC1.4 of 0.2807 µM.

On to `CS(=O)(=O)c1cc(C(=O)N2CCCC[C@@H]2C(=O)N[C@@H](c2cc(F)c(Cl)cc2F)C2CC2)ccn1` [Example 318, (2R)-N-((R)-(4-chloro-2,5-difluorophenyl)(cyclopropyl)methyl)-1-((2-(methylsulfonyl)-4-pyridinyl)carbonyl)-2-piperidinecarboxamide], for which the AC1.4 worked out at 0.8652 µM.

`O=C(NCc1ccc(C(F)(F)F)cc1)[C@H]1CCCN1C(=O)[C@H]1CCCN(S(=O)(=O)N2CC(OC(F)F)C2)C1` [Example 343, 1-(((3S)-1-((3-(difluoromethoxy)-1-azetidinyl)sulfonyl)-3-piperidinyl)carbonyl)-N-(4-(trifluoromethyl)benzyl)-D-prolinamide] displayed an AC1.4 of 0.9742 µM.
